How the values were obtained:
Assay in all cases: drug sensitivity score (DSS3, normalised partial AUC of % inhibition dose-response) (DSS (score)); higher = more sensitive (stronger inhibition of viability); extreme values may be limits of the assay
[1] = system: FMOC02_1 (patient-derived low-grade serous ovarian cancer cells); conditions: 72 h; library: FO5A; assay format: 2D, 384-well, CellTiter-Glo
Summary of the method: (§1)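 Patient-derived ovarian cancer cells (early passage, under 10) were dispensed onto 384-well flat clear-bottom plates pre-plated with compounds at five concentrations covering a 10,000-fold range. Plates were incubated 72 h at 37 °C, 5% CO2, and viability was read with CellTiter-Glo. Data were processed in Breeze. The drug sensitivity score (DSS3) is a partial area under the percent-inhibition dose-response curve, divided by the log of the upper asymptote; higher means more sensitive.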

[2] = system: FMOC02_2 (patient-derived low-grade serous ovarian cancer cells); conditions: 72 h; library: FO5A; assay format: 2D, 384-well, CellTiter-Glo
Summary of the method: as §1

[3] = system: FMOC02_3 (patient-derived low-grade serous ovarian cancer cells); conditions: 72 h; library: FO5A; assay format: 2D, 384-well, CellTiter-Glo
Summary of the method: as §1

[4] = system: FMOC03 (patient-derived mucinous ovarian cancer cells); conditions: 72 h; library: FO5A; assay format: 2D, 384-well, CellTiter-Glo
Summary of the method: as §1

[5] = system: FMOC04 (patient-derived high-grade serous ovarian cancer cells); conditions: 72 h; library: FO5A; assay format: 2D, 384-well, CellTiter-Glo
Summary of the method: as §1

[6] = system: FMOC06 (patient-derived mucinous ovarian cancer cells); conditions: 72 h; library: FO5A; assay format: 2D, 384-well, CellTiter-Glo
Summary of the method: as §1

[7] = system: FMOC09 (patient-derived high-grade serous ovarian cancer cells); conditions: 72 h; library: FO5A; assay format: 2D, 384-well, CellTiter-Glo
Summary of the method: as §1

[8] = system: FMOC11 (patient-derived high-grade serous ovarian cancer cells); conditions: 72 h; library: FO5A; assay format: 2D, 384-well, CellTiter-Glo
Summary of the method: as §1

[9] = system: FMOC14 (patient-derived high-grade serous ovarian cancer cells); conditions: 72 h; library: FO5A; assay format: 2D, 384-well, CellTiter-Glo
Summary of the method: as §1

[10] = system: FMOC17 (patient-derived low-grade serous ovarian cancer cells); conditions: 72 h; library: FO5A; assay format: 2D, 384-well, CellTiter-Glo
Summary of the method: as §1

[11] = system: FMOC22 (patient-derived mucinous ovarian cancer cells); conditions: 72 h; library: FO5A; assay format: 2D, 384-well, CellTiter-Glo
Summary of the method: as §1

[12] = system: FMOC24 (patient-derived high-grade serous ovarian cancer cells); conditions: 72 h; library: FO5A; assay format: 2D, 384-well, CellTiter-Glo
Summary of the method: as §1

[13] = system: FMOC25_1 (patient-derived low-grade serous ovarian cancer cells); conditions: 72 h; library: FO4B; assay format: 2D, 384-well, CellTiter-Glo
Summary of the method: as §1

[14] = system: FMOC25_2 (patient-derived low-grade serous ovarian cancer cells); conditions: 72 h; library: FO5A; assay format: 2D, 384-well, CellTiter-Glo
Summary of the method: as §1

[15] = system: FMOC27 (patient-derived low-grade serous ovarian cancer cells); conditions: 72 h; library: FO5A; assay format: 2D, 384-well, CellTiter-Glo
Summary of the method: as §1

[16] = system: FMOC28 (patient-derived low-grade serous ovarian cancer cells); conditions: 72 h; library: FO5A; assay format: 2D, 384-well, CellTiter-Glo
Summary of the method: as §1

## NCC(=O)Nc1ccc(-n2nc(C(F)(F)F)cc2-c2ccc3c(ccc4ccccc43)c2)cc1
[1]
  drug sensitivity score: 6.9
[2]
  drug sensitivity score: 4.3
[3]
  drug sensitivity score: 1.8
[4]
  drug sensitivity score: 0.4
[5]
  drug sensitivity score: 1.2
[6]
  drug sensitivity score: 0
[7]
  drug sensitivity score: 0
[8]
  drug sensitivity score: 0
[9]
  drug sensitivity score: 0
[10]
  drug sensitivity score: 1.9
[11]
  drug sensitivity score: 0.8
[12]
  drug sensitivity score: 3.05
[13]
  drug sensitivity score: 7.9
[14]
  drug sensitivity score: 5.2
[15]
  drug sensitivity score: 0
[16]
  drug sensitivity score: 4.5
